Results reported in ChEMBL document CHEMBL1201862, “PubChem BioAssay data set” (2004).
Calls of active or inactive are those of the source.

Assays:
[1] = molecular target: T1, Serine/threonine-protein phosphatase (Candida dubliniensis (strain CD36 / CBS 7987 / NCPF 3949 / NRRLY-17841) (Yeast), UniProt B9W6M3); assay: Fluorescence Cell-Based Secondary Assay to Identify Inhibitors of Calcineurin. [Related pubchem assays (depositor defined):AID1979, AID2007]; type: functional
T1 sequence (B9W6M3 whole entry): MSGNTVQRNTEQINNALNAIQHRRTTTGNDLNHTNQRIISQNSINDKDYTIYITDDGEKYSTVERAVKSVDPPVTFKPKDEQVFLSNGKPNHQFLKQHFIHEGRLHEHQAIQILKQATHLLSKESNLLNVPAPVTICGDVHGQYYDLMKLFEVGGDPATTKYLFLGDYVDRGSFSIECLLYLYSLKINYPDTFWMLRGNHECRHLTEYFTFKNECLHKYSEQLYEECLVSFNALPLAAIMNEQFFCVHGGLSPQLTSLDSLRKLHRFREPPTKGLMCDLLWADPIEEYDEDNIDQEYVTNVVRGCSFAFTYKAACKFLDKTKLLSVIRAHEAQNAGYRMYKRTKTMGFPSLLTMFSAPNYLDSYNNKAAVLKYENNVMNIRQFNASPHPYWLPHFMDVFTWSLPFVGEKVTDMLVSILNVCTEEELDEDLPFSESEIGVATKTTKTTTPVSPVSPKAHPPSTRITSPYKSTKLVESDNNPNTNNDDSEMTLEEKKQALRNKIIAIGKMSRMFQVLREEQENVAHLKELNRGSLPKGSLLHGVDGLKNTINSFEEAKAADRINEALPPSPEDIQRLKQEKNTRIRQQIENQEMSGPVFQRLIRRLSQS

[2] = HepG2 cell cytotoxicity, dose response, cytotoxicity control for non-replicating M. tuberculosis project (AID 489018); type: functional; conditions: Mycobacterium tuberculosis
[3] = THP-1 cell cytotoxicity, dose response, cytotoxicity control for non-replicating M. tuberculosis project (AID 489025); type: functional
[4] = NIH-3T3 fibroblast cytotoxicity, dose response, cytotoxicity control, cell-based, fluorescence, Alamar Blue, secondary assay (AID 2327); type: functional;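 note: NIH-3T3 mouse fibroblasts cultured with fluconazole at 8 µg/mL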
[5] = C. albicans growth with fluconazole, confirmation, fluorescence, retest (AID 2467); type: functional, cell-based
cells = type: functional
[6] = Vero E6 cell cytotoxicity, dose response, cytotoxicity control for non-replicating M. tuberculosis project, secondary assay (AID 492998); type: functional, VeroE6; conditions: Vero C1008
[7] = molecular target: T2, Short transient receptor potential channel 4 (Mus musculus, UniProt Q9QUQ5); assay: mouse TRPC4 channel activators, dose response, cell-based, HEK293 TRPC4/mu-opioid, Fluo-4 calcium (AID 434937); type: functional
T2 sequence (Q9QUQ5 whole entry): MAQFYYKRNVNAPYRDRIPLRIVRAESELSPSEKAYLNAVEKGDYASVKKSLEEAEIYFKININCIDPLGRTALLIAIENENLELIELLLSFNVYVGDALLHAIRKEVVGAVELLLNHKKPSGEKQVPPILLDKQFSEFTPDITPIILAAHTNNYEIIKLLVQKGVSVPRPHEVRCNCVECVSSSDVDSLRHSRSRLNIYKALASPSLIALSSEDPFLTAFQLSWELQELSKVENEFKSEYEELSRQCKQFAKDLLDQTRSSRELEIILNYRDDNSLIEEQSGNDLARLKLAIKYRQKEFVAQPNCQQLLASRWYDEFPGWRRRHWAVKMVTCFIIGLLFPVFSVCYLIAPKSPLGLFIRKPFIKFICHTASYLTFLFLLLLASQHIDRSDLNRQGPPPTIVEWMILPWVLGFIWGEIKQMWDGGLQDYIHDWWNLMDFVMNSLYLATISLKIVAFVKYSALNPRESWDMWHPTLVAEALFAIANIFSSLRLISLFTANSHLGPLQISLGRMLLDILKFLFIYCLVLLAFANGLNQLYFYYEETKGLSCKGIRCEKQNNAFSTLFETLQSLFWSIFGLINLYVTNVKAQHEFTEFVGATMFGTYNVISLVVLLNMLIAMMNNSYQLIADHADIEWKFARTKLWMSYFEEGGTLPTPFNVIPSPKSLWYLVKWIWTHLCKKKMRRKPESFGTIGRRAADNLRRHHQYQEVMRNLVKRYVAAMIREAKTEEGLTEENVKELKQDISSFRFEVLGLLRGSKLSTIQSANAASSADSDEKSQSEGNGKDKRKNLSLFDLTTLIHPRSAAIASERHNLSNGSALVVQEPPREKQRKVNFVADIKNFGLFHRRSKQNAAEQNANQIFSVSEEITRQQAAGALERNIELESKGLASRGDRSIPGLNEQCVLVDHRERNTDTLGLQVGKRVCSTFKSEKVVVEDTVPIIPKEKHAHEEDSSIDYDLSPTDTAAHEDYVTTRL

[8] = molecular target: T1, Serine/threonine-protein phosphatase; assay: calcineurin pathway inhibitors in yeast reporter, dose response, S. cerevisiae, CDRE-lacZ, luminescence, secondary (AID 2388); type: functional, cell-based;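 note: yeast reporter cells carrying a calcineurin-responsive lacZ construct stimulated with calcium chloride; luminescent beta-galactosidase reporter signal in whole cells rather than isolated phosphatase activity; potency for inhibition where a drop in reporter signal means calcineurin blockade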
[9] = molecular target: ATP-dependent molecular chaperone HSP82 (Candida albicans (strain WO-1) (Yeast), UniProt C4YTQ8); assay: loss of DOC-induced GRE-beta-galactosidase reporter signal, dose response, Hsp90 inhibitor project, S. cerevisiae, luminescence (AID 2400); type: functional, cell-based;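 note: beta-galactosidase luminescence from glucocorticoid response element reporter as proxy for Hsp90 function; inhibitor potency where signal loss means Hsp90 inhibition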
Salmon testes DNA = assay: DNA intercalators displacing acridine orange, dose response, artefact control for KSHV LANA DNA-binding inhibitor project, biochemical, fluorescence polarization, cherry-picked samples, set 2 (AID 504727); design: species or system Salmonidae
ORF 73 = ORF 73 (Human herpesvirus 8, UniProt O40947); assay: inhibitors of C-LANA binding to LBS DNA, dose response, biochemical, fluorescence polarization, cherry-picked samples (AID 504725); design: species or system Human gammaherpesvirus 8;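 note: fluorescence polarization of a labeled DNA duplex reporting LANA DNA binding; potency is for inhibitors that block LANA binding to the DNA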
[10] = molecular target: UDP-galactopyranose mutase (Mycobacterium tuberculosis, UniProt P9WIQ1); assay: Inhibitors of Mycobacterium tuberculosis UDP-galactopyranose mutase (UGM) enzyme Measured in Biochemical System Using Plate Reader - 2105-02_Inhibitor_Dose_CherryPick_Activity. [Related pubchem assays (depositor defined):AID504439]
[11] = tested on: Streptococcus sp. 'group A'; assay: growth inhibition of control SK(-) GAS strain, dose response, counter-screen for streptokinase expression inhibitor project, luminescence, kanamycin, BacTiterGlo, confirmation (AID 1900); type: functional, organism-based
[12] = molecular target: T3, Orexin/Hypocretin receptor type 1 (Homo sapiens, UniProt O43613); assay: Fluorescence-based cell-based high throughput dose response assay for antagonists of the orexin 1 receptor (OX1R; HCRTR1). [Related pubchem assays (depositor defined):AID434989, AID435008, AID463079, AID485270, AID492963, AID492964, AID492965, AID493232, AID504717, AID504718]; type: functional
T3 sequence (O43613 whole entry): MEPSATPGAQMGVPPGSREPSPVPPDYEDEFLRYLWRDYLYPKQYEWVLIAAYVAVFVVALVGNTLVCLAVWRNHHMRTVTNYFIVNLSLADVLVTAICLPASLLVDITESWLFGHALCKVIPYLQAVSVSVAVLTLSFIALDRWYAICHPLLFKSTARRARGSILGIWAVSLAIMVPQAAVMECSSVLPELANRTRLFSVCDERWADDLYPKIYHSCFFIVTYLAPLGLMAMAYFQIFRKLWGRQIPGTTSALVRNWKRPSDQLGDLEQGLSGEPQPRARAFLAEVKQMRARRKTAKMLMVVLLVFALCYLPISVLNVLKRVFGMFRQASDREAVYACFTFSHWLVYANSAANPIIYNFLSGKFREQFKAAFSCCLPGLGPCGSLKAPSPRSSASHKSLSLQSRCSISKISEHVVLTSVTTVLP

[13] = Counterscreen for antagonists of the orexin 1 receptor (OX1R; HCRTR1): Fluorescence-based cell-based high throughput dose response assay to identify antagonists of the parental CHO cell line. [Related pubchem assays (depositor defined):AID434989, AID435008, AID463079, AID485270, AID492963, AID492964, AID492965, AID493232, AID504699, AID504701]; type: functional
Streptokinase A = molecular target: T4, Streptokinase A (Streptococcus pyogenes serotype M1, UniProt P10520); assay: S. pyogenes streptokinase expression inhibitors, potency, dose response, plasminogen activation absorbance, OD405 (AID 1914); type: functional, Streptococcus pyogenes M1 GAS;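 note: secreted streptokinase activity via plasminogen activation per viability signal from cell pellet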
T4 sequence (P10520 whole entry): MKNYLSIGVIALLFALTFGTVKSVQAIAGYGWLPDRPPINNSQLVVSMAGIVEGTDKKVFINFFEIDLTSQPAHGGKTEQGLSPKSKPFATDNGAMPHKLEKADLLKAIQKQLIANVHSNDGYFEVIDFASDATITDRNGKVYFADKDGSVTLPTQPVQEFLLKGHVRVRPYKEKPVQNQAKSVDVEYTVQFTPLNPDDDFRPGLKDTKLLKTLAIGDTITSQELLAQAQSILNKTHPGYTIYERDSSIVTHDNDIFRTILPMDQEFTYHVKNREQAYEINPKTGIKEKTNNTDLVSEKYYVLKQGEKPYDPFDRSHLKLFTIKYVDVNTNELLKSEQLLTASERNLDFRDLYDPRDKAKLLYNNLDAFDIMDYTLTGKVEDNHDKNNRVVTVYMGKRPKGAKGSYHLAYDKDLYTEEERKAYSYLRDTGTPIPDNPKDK

Orexin receptor type 2 [14] = molecular target: T5, Orexin receptor type 2 (Homo sapiens, UniProt O43614); assay: Counterscreen assay for antagonists of the orexin 1 receptor (OX1R; HCRTR1): Homogeneous Time Resolved Fluorescence (HTRF)-based cell-based dose response assay for antagonists of the orexin 2 receptor (OX2R; HCRTR2), run by assay provider.; type: functional
T5 sequence (O43614 whole entry): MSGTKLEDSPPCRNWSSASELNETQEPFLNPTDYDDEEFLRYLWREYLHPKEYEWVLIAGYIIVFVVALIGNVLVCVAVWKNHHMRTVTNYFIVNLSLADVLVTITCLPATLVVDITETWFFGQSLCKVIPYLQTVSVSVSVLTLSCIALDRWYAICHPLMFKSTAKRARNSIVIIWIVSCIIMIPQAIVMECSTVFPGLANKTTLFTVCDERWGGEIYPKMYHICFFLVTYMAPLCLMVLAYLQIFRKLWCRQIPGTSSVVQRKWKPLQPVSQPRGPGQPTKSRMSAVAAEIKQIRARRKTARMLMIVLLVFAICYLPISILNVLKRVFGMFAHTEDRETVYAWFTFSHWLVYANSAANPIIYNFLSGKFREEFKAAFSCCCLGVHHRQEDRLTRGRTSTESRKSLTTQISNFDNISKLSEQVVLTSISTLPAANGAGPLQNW

Streptococcus = assay: Group A Streptococcus viability loss, dose response, counter-screen for streptokinase expression inhibitor project, luminescence, BacTiterGlo (AID 1915); type: functional, organism-based;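 note: potency for reduction of bacterial viability or growth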
CHO-K1 = assay: Counterscreen for antagonists of the orexin 1 receptor (OX1R; HCRTR1): Homogeneous time resolved fluorescence (HTRF)-based cell-based dose response assay to identify antagonists of the parental CHO-K1 cell line. [Related pubchem assays (depositor defined):AID434989, AID435008, AID463079, AID485270, AID492963, AID492964, AID492965, AID493232, AID504699, AID504701]; type: functional; conditions: Cricetulus griseus;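 note: potency for inhibition of ATP-stimulated IP1 production as antagonists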
Orexin receptor type 2 [15] = molecular target: T5, Orexin receptor type 2; assay: Counterscreen assay for antagonists of the orexin 1 receptor (OX1R; HCRTR1): Fluorescence-based cell-based dose response assay for antagonists of the orexin 2 receptor (OX2R; HCRTR2), run by assay provider.; type: functional
[16] = cytotoxicity in HMLE control line with eGFP shRNA, dose response, counter-screen for HMLE_sh_ECad selective toxicity project, cell-based, HMLE_sh_eGFP, luminescence (AID 463074); type: functional, Homo sapiens;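 note: HMLE human mammary epithelial cells expressing control shRNA against eGFP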
[17] = Luminescence Cell-Based Dose Retest to Confirm Inhibitors of Cancer Stem Cells. [Related pubchem assays (depositor defined):AID2717, AID2721]; type: functional; conditions: Homo sapiens
[18] = molecular target: T3, Orexin/Hypocretin receptor type 1; assay: Homogeneous Time Resolved Fluorescence (HTRF)-based cell-based high throughput dose response assay for antagonists of the orexin 1 receptor (OX1R; HCRTR1). [Related pubchem assays (depositor defined):AID434989, AID435008, AID463079, AID485270, AID492963, AID492964, AID492965, AID493232, AID504717, AID504718]; type: functional

Sequence of UDP-galactopyranose mutase (P9WIQ1 whole entry): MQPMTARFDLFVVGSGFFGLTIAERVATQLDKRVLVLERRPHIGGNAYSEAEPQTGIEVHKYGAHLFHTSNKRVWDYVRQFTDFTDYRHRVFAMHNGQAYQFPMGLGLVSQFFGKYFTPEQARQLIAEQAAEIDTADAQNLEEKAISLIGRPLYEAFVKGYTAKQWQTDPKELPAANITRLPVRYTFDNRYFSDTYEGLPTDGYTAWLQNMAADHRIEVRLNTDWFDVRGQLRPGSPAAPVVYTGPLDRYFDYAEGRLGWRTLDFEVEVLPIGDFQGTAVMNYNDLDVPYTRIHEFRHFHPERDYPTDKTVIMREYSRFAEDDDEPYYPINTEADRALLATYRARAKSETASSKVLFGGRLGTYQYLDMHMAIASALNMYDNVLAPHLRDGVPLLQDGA
Sequence of ORF 73 (O40947 whole entry): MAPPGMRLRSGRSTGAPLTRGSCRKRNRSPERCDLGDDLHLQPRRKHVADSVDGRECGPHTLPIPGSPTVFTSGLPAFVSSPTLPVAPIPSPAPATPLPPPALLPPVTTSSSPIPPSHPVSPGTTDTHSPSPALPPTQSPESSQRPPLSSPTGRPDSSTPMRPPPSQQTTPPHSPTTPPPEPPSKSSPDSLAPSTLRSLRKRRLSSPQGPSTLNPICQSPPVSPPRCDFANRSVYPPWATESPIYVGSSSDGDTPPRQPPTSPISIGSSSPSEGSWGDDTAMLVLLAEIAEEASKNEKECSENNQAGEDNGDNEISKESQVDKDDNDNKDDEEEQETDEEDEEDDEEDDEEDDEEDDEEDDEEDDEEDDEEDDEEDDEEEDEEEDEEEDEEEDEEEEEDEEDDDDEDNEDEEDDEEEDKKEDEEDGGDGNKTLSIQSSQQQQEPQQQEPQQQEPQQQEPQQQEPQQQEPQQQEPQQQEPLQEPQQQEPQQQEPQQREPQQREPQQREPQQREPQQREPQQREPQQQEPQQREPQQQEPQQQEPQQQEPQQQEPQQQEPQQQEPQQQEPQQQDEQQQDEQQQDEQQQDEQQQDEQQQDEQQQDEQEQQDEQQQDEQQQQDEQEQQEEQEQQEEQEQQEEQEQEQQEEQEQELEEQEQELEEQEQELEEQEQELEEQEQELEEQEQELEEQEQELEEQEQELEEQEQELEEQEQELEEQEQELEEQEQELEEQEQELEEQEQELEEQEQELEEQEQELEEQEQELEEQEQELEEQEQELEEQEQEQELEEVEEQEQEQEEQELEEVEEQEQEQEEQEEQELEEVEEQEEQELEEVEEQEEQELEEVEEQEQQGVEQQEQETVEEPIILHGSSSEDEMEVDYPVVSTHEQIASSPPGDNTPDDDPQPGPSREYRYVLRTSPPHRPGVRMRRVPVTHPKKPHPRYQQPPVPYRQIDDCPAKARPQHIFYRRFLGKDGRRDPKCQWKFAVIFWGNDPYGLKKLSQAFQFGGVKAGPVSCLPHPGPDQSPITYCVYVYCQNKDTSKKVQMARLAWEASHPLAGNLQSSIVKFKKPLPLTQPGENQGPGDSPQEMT
Sequence of ATP-dependent molecular chaperone HSP82 (C4YTQ8 whole entry): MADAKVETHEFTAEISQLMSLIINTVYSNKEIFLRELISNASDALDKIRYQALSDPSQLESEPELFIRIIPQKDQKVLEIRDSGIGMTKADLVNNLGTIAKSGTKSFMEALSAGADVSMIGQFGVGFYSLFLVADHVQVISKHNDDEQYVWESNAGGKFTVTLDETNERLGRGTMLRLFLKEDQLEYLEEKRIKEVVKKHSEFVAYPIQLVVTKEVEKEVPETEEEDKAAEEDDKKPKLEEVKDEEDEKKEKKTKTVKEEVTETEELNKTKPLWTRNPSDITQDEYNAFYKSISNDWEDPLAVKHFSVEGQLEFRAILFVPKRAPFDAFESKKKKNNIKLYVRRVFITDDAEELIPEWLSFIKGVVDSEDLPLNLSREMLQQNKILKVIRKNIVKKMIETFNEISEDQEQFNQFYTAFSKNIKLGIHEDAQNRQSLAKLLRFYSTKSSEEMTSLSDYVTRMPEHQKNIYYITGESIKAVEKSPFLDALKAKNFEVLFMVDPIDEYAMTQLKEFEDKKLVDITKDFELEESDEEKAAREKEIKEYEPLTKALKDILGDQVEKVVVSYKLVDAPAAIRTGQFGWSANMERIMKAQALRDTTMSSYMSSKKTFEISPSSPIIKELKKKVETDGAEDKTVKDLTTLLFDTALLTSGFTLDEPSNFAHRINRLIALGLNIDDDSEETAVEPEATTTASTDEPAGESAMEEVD

O=c1c2cc(Br)ccc2nc(-c2cccc(C(F)(F)F)c2)n1O
EC50 [1]: 17.3 µM (active) | CC50 [2]: 15.8 µM (active) | CC50 [3]: 13.9 µM (active) | EC50 [4]: 15.5 µM (inconclusive) | EC50 [5]: 0.451 µM (active) | IC50 (cells): 8.38 µM (active) | CC50 [6]: 11.6 µM (active) | EC50 [7]: 5.96 µM (active) | EC50 [8]: 28.1 µM (active) | EC50 [9]: 4.04 µM (active)

Cn1cc(/C=C2\C(=O)NC(=O)N(c3ccccc3)C2=O)c2ccccc21
AC50 (Salmon testes DNA): 92.2 µM (active) | AC50 (ORF 73): 41.3 µM (active) | AC50 [10]: 71.9 µM (active)

O=c1c2ccccc2oc2cc(-c3ccc4[nH]ccc4c3)ccc12
EC50 [11]: 8.57 µM (active) | IC50 [12]: 6.96 µM (active) | IC50 [13]: 48.8 µM (inactive) | EC50 (Streptokinase A): > 150 µM (not active) | IC50 (Orexin receptor type 2 [14]): > 50 µM (inactive) | EC50 (Streptococcus): > 150 µM (not active) | IC50 (CHO-K1): > 66.3 µM (inactive) | IC50 (Orexin receptor type 2 [15]): 40 µM (inactive) | AC50 [16]: 0.29 µM (inconclusive) | AC50 [17]: 0.255 µM (active) | IC50 [18]: 2.71 µM (active)
